According to US20220332799A1, “HERV INHIBITORS FOR USE IN TREATING TAUOPATHIES” (Deutsches Zentrum Für Neurodegenerative Erkrankungen E.V. …, priority 2019, published 2022):
Entries after “also recorded” stand apart in the source; their conditions may differ.

Columns and labels:
HERV-K = conditions: Tyagi et al., Retrovirology (2017), 14:21; cited from earlier work
[1] = test system: HERV-W Env (Syncytin-1) mRNA; experiment: Quantitative real-time PCR of Syncytin-1 in MCF-7 cells; format: cell-based, human; conditions: MCF-7 Tau-GFPAD cells, 2 μM for 4 d; vs DMSO
Protocol: (§1) FIG. 14: Human endogenous retroviruses contribute to the spreading of protein aggregates. • a. Experimental workflow. A human breast cancer cell line MCF-7 (4) was engineered to stably express Tau-GFP and induced to propagate Tau aggregates by exposure to Alzheimer's disease brain homogenate (AD). A single cell clone was subsequently isolated and used in the experiment (MCF-7 Tau-GFPAD). This donor clone was treated with 2 μM 5-Aza-2-deoxycytidine (Aza) for 4 d to de-repress HERV expression. Pretreated donor cells were cocultured with HEK-Tau-FRsol cells. • b. […] Statistics: Unpaired Student's t-test (n=3). • c. Quantitative analysis of recipient cells with induced Tau-FR aggregates following coculture with DMSO-treated or Aza-treated donor cells. Statistics: Unpaired Student's t-test (n=6). • d. […] Recipients were subsequently cocultured with transduced donors that had been passaged at least 5 times post transduction. • e. shRNA-mediated downregulation of Syncytin-1 mRNA in MCF-7 Tau-GFPAD cells assessed by quantitative real-time PCR. […] Quantitative analysis of recipient cells with induced Tau-FR aggregates following coculture with donors with decreased HERV-W Syncytin-1 expression. […]
Total RNAs from cell pellets were isolated using the RNeasy Mini Kit or RNeasy Lipid Tissue Mini Kit (Qiagen). RNA concentration and quality were determined with Agilent 2100 Bioanalyzer System. […]

HEK Tau-FRsol cells = experiment: Tau-FR aggregate induction by coculture with MCF-7 Tau-GFPAD donor cells; format: cell-based, human; conditions: donors pretreated with 2 μM for 4 d; coculture 3 d without drug; vs DMSO
Protocol: as §1, with “cells.” for “cells. Statistics: Unpaired Student's t-test (n=6). • d.”
To inhibit methyltransferase, MCF-7 Tau-GFPAD cells were treated with 2 μM Aza or DMSO for 4 d. […] Afterwards, the total numbers of viable cells and the viability upon drug treatments were determined using the Vi-VELLTMXR Cell Viability Analyzer (Beckman Coulter). […]

SMILES | effectiveness against HERV-K (HERV-K) | Syncytin-1 mRNA levels [1] | recipient cells with induced Tau-FR aggregates in cocultures (HEK Tau-FRsol cells)
CC(C)CN(C[C@@H](O)[C@H](Cc1ccccc1)NC(=O)O[C@H]1CCOC1)S(=O)(=O)c1ccc(N)cc1 [Amprenavir] | effective against HERV-K | – | –
Nc1ncn([C@H]2C[C@H](O)[C@@H](CO)O2)c(=O)n1 [Decitabine, 5-aza-2′-deoxycytidine] | – | enhanced Syncytin-1 mRNA levels; also recorded: increased HERV-W Env (Syncytin-1) expression | increased recipient cells with aggregates in cocultures
